Columns and labels:
[1] = tested on: Rattus norvegicus; test: Antiosteoporotic activity in ovariectomized Sprague-Dawley rat osteoporosis model assessed as increase in bone mineral density in spine at 0.007 mg/kg/day administered 5 times a week for 4 weeks measured 24 hrs post last dose by dual X-ray absorption meter (reference value: 0.209 +/- 0.011 g/cm'2); format: functional
[2] = biological target: T1, Vitamin D3 receptor (Homo sapiens, UniProt P11473); test: Transactivation of VDR-mediated osteocalcin promoter in human HOS/SF cells after 24 hrs by luciferase reporter gene assay; format: cell-based
T1 sequence (P11473 whole entry): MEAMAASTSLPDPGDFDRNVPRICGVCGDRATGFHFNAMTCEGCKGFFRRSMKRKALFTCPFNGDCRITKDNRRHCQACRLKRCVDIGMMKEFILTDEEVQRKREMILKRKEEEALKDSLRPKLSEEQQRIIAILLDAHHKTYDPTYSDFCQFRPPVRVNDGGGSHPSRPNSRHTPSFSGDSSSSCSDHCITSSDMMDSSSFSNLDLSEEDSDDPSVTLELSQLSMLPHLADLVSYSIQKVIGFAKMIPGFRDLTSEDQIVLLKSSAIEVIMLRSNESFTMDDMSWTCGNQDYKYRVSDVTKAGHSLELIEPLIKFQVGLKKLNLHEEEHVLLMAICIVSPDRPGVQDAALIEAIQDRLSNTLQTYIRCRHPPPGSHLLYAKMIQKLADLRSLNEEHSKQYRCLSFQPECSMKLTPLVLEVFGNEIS

[3] = tested on: Rattus norvegicus; test: Toxicity in ovariectomized Sprague-Dawley rat osteoporosis model assessed as increase in serum Ca level at 0.007 mg/kg/day administered 5 times a week for 4 weeks measured 24 hrs post last dose (reference value: 9.25 +/- 0.11 mg/dL); format: organism-based; conditions: in vivo
[4] = tested on: Rattus norvegicus; test: Toxicity in ovariectomized Sprague-Dawley rat osteoporosis model assessed as increase in serum Ca level at 0.02 mg/kg/day administered 5 times a week for 4 weeks measured 24 hrs post last dose (reference value: 9.25 +/- 0.11 mg/dL); format: organism-based; conditions: in vivo
[5] = tested on: Rattus norvegicus; test: Antiosteoporotic activity in ovariectomized Sprague-Dawley rat osteoporosis model assessed as increase in bone mineral density in spine at 0.02 mg/kg/day administered 5 times a week for 4 weeks measured 24 hrs post last dose by dual X-ray absorption meter (reference value: 0.209 +/- 0.011 g/cm'2); format: functional
[6] = tested on: Rattus norvegicus; test: Antiosteoporotic activity in ovariectomized Sprague-Dawley rat osteoporosis model assessed as increase in bone mineral density in spine at 0.025 mg/kg/day administered 5 times a week for 4 weeks measured 24 hrs post last dose by dual X-ray absorption meter (reference value: 0.209 +/- 0.019 g/cm'2); format: functional
[7] = tested on: Rattus norvegicus; test: Toxicity in ovariectomized Sprague-Dawley rat osteoporosis model assessed as increase in serum Ca level at 0.1 mg/kg/day administered 5 times a week for 4 weeks measured 24 hrs post last dose (reference value: 9.14 +/- 0.24 mg/dL); format: organism-based; conditions: in vivo
[8] = tested on: Rattus norvegicus; test: Antiosteoporotic activity in ovariectomized Sprague-Dawley rat osteoporosis model assessed as increase in bone mineral density in spine at 0.1 mg/kg/day administered 5 times a week for 4 weeks measured 24 hrs post last dose by dual X-ray absorption meter (reference value: 0.209 +/- 0.019 g/cm'2); format: functional
[9] = tested on: Rattus norvegicus; test: Toxicity in ovariectomized Sprague-Dawley rat osteoporosis model assessed as increase in serum Ca level at 0.025 mg/kg/day administered 5 times a week for 4 weeks measured 24 hrs post last dose (reference value: 9.14 +/- 0.24 mg/dL); format: organism-based; conditions: in vivo

C=C1/C(=C\C=C2/CCC[C@]3(C)[C@@H]([C@H](C)CCCC(C)(C)O)CC[C@@H]23)C[C@@H](O)[C@H](CCn2ncnn2)[C@@H]1O
Activity [1]: 0.214 g/cm2 | EC50 [2]: 10 pM | Activity [3]: 9.41 mg/dL | Activity [4]: 9.66 mg/dL | Activity [5]: 0.223 g/cm2

C=C1/C(=C\C=C2/CCC[C@]3(C)[C@@H]([C@H](C)CCCC(C)(C)O)CC[C@@H]23)C[C@@H](O)[C@H](CCn2cnnn2)[C@@H]1O
EC50 [2]: 290 pM

C=C1/C(=C\C=C2/CCC[C@]3(C)[C@@H]([C@H](C)CCCC(C)(C)O)CC[C@@H]23)C[C@@H](O)[C@H](CCn2cncn2)[C@@H]1O
EC50 [2]: 150 pM

C=C1/C(=C\C=C2/CCC[C@]3(C)[C@@H]([C@H](C)CCCC(C)(C)O)CC[C@@H]23)C[C@@H](O)[C@H](CCn2nccn2)[C@@H]1O
EC50 [2]: 44 pM

C=C1/C(=C\C=C2/CCC[C@]3(C)[C@@H]([C@H](C)CCCC(C)(C)O)CC[C@@H]23)C[C@@H](O)[C@H](CCn2ccnn2)[C@@H]1O
EC50 [2]: 210 pM

C=C1/C(=C\C=C2/CCC[C@]3(C)[C@@H]([C@H](C)CCCC(C)(C)O)CC[C@@H]23)C[C@@H](O)[C@H](CCn2ccnc2)[C@@H]1O
EC50 [2]: 680 pM

C=C1/C(=C\C=C2/CCC[C@]3(C)[C@@H]([C@H](C)CCCC(C)(C)O)CC[C@@H]23)C[C@@H](O)C[C@@H]1O [CALCITRIOL]
Activity [6]: 0.218 g/cm2 | Activity [7]: 10.35 mg/dL | Activity [8]: 0.228 g/cm2 | Activity [9]: 10.14 mg/dL

Source: ChEMBL document CHEMBL2407046, “Synthesis of 2α-heteroarylalkyl active vitamin d3 with therapeutic effect on enhancing bone mineral density in vivo” (ACS Med Chem Lett, 2013)
